Data set [1] has as its system cidABC and lrgAB transcription. The format is cell-based, S. aureus.
Data set [2] deals with cidC-encoded pyruvate oxidase. The format is biochemical, S. aureus.
For a further data set, the system named is S. aureus UAMS-1. It is filed as cell-based.
Data set [3] relates to S. aureus KB1050 (cidA mutant). It is filed as cell-based.
Data set [4] concerns SH1000 strain. It is filed as cell-based.
Data set [5] relates to 8325-4 strain. It is filed as cell-based.
Data set [6] concerns SH1000 strain. It is filed as cell-based. The source holds these as a separate data set.
In data set [7] the test system is 8325-4 strain.

Molecules are shown by their SMILES. “Also recorded” adds a separate entry of the source. Where a name gives a salt, the structure may show the parent alone. Read-outs that look alike come from different tables or passages of the source.

As a reminder, the viability is the share of living cells, or the viability signal relative to a control. Low readings indicate a greater loss of cells, high ones better survival.

Take `Cl` [HCl]: the “cidABC and lrgAB expression” value in data set [1] (pH 5) is reported as “elevated the expression of cidABC relative to growth in neutral media”.
Consider `[Cl-].[Na+]` [NaCl, sodium chloride], for which the “cidABC and lrgAB expression” value in data set [1] (pH 4.5) was “not detected at any of the pH values tested”.
Turning to `C=C(OP(=O)(O)O)C(=O)O` [phosphoenol pyruvate], in data set [2], the “pyruvate oxidase activity with carbon source added instead of sodium pyruvate” value (from here on “pyruvate oxidase activity”) was “approximately half of what was seen with sodium pyruvate”.
As for `CC(=O)O` [acetic acid], in data set [1], the cidABC expression entry is “dramatically increased expression of cidABC”. Further, the “cidABC and lrgAB expression” value in data set [1] (pH 5) was “pronounced positive effect on both cidABC and lrgAB expression”. Also, in the data set on alsSD transcription, the alsSD expression entry is “dramatically increased expression of alsSD at all time points tested”.
As to `CC(=O)[O-].[Na+]` [Na-acetate, sodium acetate], the results for the “cidABC and lrgAB expression” value in [1] (pH 4.5) and in data set [1] (pH 6.5) were “dramatically increased” and “undetectable”, respectively.
As for `OCC(O)CO` [glycerol], the “pyruvate oxidase activity” value in data set [2] was “the only one that possessed activity was the phosphoenol pyruvate”.
For the compound `CC(=O)[O-].[K+]` [potassium acetate], in data set [2], the “pyruvate oxidase activity” value is listed as “the only one that possessed activity was the phosphoenol pyruvate”.
On the same count and under the same terms, under `CC(O)C(=O)[O-].[Na+]` (stereo not shown) [sodium lactate] stands “the only one that possessed activity was the phosphoenol pyruvate”.
With `CO[C@H]1/C=C/O[C@@]2(C)Oc3c(C)c(O)c4c(O)c(c(/C=N/N5CCN(C)CC5)c(O)c4c3C2=O)NC(=O)/C(C)=C\C=C\[C@H](C)[C@H](O)[C@@H](C)[C@@H](O)[C@@H](C)[C@H](OC(C)=O)[C@@H]1C` [rifampin], in the data set on S. aureus UAMS-1, the “decrease in viable cell counts” value is “three log decrease in viable cell counts; also recorded: just over one log decrease”. In data set [3], the “rifampin sensitivity relative to UAMS-1” value was “decreased rifampin sensitivity relative to UAMS-1” and the “viable cell counts compared to UAMS-1 after incubation with rifampin” value is “greater than one log unit higher viable cell counts”. The “loss of viable cell counts” value in the data set with SH1000 strain [4] is listed as “lose two log units of viable cell counts”. In addition, the “loss of viable cell counts” value in the data set on 8325-4 strain [5] was “lose two log units of viable cell counts”. In addition, the loss of viability result in the data set with SH1000 strain [6] was “two log loss of viability”. Besides, the “difference in viable cell counts determined using the two methods” value in the data set with 8325-4 strain [7] was “greater than 1,000 fold”. In addition, in the data set on 8325-4 strain [7] (Staphylococcus aureus), the viability was around 100%.

These data come from patent US7842479B2 (priority 2004, dated 2010).
